Results reported in patent publication US20220363719A1, “Reverse Amide-Linked Melanocortin Receptor-Specific Cyclic Peptides” (Palatin Technologies, Inc., priority 2020, published 2022).
Where a SMILES comes first, the peptide text is derived from it. Bridges are numbered along the chain shown (N, C = ends). [ ]: non-standard residue; d: D form. The star is where a group is joined. ξ: configuration not given here. d1Nal = N[C@H](Cc1cccc2ccccc12)C(=O)O; Nle = CCCC[C@H](N)C(=O)O; Dab = NCC[C@H](N)C(=O)O; ξHyp = O=C(O)C1CC(O)CN1; Dap = NC[C@H](N)C(=O)O; Hexanoyl = CCCCCC(=O)*; Ava = NCCCCC(=O)O; Bn = c1ccc(C*)cc1; βAla = NCCC(=O)O

Legend:
Assay type in all cases: cell-based
hMC4r [1] = biological target: T1, hMC4r (Homo sapiens, UniProt P32245); assay: Alternative assay for agonist activity (intracellular cAMP), HEK-293 cells, recombinant MC4r; parameters: expressed in transfected cells; host or cells: HEK-293; details: for Emax: HEK293, not CEREP, reference NDP-α-MSH, read-out: Emax percent hMC4r (percent of the maximal response obtained with the positive control); for EC50: not CEREP, cAMP HTRF
T1 sequence (P32245 whole entry): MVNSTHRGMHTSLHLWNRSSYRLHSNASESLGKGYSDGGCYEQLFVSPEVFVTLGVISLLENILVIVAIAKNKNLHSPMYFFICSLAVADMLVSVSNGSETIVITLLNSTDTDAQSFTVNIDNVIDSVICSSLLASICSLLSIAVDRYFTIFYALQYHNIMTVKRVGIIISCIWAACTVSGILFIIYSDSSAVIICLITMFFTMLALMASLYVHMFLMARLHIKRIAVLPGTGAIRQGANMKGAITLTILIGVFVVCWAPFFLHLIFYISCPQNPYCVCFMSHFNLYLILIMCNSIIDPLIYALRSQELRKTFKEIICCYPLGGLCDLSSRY
Description: (§1) Accumulation of intracellular cAMP was examined as a measure of the ability of the peptides to elicit a functional response in either HEK-293 cells that express recombinant MC3r or MC4r or B16-F10 (mouse) and HBL (human) cell lines that express native MC1 r. Confluent cells were detached from culture plates by incubation in enzyme-free cell dissociation buffer. Dispersed cells were suspended in Hank's Balanced Salt Solution containing 10 mM HEPES (pH 7.5), 1 mM MgCl2, 1 mM glutamine, 0.5% albumin and 0.3 mM 3-isobutyl-1-methyl-xanthine (IBMX), a phosphodiesterase inhibitor. The cells were dispensed into 96-well plates at a density of 0.5×10^5 cells per well and pre-incubated for 10 minutes. Cells were exposed for 15 minutes at 37° C. to peptides dissolved in DMSO (final DMSO concentration of 1%) at a concentration range of 0.05-5000 nM in a total assay volume of 200 μL. NDP-α-MSH was used as the reference agonist. cAMP levels were determined by an HTRF® cAMP cell-based assay system from Cisbio Bioassays utilizing cryptate-labeled anti-cAMP and D2-labeled cAMP, with plates read on a Perkin-Elmer Victor plate reader at […]. Data analysis was performed by nonlinear regression analysis with Graph-Pad Prism® software. The maximum efficacies of the test peptides were compared to that achieved by the reference melanocortin agonist NDP-α-MSH.

hMC5r [2] = biological target: T2, hMC5r (Homo sapiens, UniProt P33032); assay: Agonist activity (EC50/Emax) at hMC5r, not determined by CEREP; details: for Emax: read-out: Emax percent hMC5r (percent of the maximal response obtained with the positive control)
T2 construct: Eurofins CEREP SA
T2 sequence (P33032 whole entry): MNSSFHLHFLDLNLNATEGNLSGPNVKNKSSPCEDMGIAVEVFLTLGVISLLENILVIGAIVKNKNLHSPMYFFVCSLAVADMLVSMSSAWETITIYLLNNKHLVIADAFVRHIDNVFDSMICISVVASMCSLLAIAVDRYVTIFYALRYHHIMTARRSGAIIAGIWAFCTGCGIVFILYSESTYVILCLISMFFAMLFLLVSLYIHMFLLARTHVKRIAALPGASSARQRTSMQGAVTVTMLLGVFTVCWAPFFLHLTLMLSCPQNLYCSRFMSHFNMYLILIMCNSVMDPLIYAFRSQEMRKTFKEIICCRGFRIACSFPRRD

mMC1r [3] = biological target: T3, mMC1r (Mus musculus, UniProt Q01727); assay: Alternative assay for agonist activity (intracellular cAMP), B16-F10 cells, native MC1r; parameters: B16-F10 (mouse) and HBL (human) cell lines that express native MC1 r; endogenous in cells; host or cells: B16-F10 mouse melanoma cells; details: not CEREP; for EC50: cAMP HTRF; for Emax: reference NDP-α-MSH, read-out: Emax percent mMC1r (percent of the maximal response obtained with the positive control)
T3 sequence (Q01727 whole entry): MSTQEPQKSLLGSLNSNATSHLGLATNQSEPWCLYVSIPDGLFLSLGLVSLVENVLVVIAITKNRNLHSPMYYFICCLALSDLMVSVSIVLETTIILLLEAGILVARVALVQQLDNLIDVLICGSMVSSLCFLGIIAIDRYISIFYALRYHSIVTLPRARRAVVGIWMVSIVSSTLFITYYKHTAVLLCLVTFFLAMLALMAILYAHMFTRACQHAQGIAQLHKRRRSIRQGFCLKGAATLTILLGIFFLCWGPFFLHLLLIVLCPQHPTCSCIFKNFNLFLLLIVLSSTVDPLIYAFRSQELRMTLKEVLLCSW
Description: as §1

hMC3r [4] = biological target: T4, hMC3r (Homo sapiens, UniProt P41968); assay: Alternative assay for agonist activity (intracellular cAMP), HEK-293 cells, recombinant MC3r; parameters: expressed in transfected cells; host or cells: HEK-293; details: for Emax: HEK293, not CEREP, reference NDP-α-MSH, read-out: Emax percent hMC3r (percent of the maximal response obtained with the positive control); for EC50: not CEREP, cAMP HTRF
T4 sequence (P41968 whole entry): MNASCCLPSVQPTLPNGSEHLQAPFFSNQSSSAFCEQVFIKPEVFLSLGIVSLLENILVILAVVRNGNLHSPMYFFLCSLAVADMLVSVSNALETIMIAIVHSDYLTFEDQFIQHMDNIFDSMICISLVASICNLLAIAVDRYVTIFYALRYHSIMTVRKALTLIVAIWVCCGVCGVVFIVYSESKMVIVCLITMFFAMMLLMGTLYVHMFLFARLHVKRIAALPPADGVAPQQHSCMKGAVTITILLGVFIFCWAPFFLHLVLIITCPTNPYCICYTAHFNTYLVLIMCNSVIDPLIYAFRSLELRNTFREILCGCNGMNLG
Description: as §1

hMC5r [5] = biological target: T2, hMC5r; assay: cAMP agonist activity assay performed at CEREP (HTRF), MC5; details: determined by CEREP, CHO-K1 cells; for EC50: cAMP HTRF; for Emax: control Alpha-MSH, read-out: Emax percent hMC5r* (percent of the maximal response obtained with the positive control)
Description: (§2) Evaluation of the agonist activity of compounds at the melanocortin receptors was determined by measuring their effects on cAMP production using the HTRF detection method at CEREP (Eurofins CEREP SA, Celle-Lévescault, France). The cells were suspended in HBSS buffer (Invitrogen) complemented with 20 mM HEPES (pH 7.4) and 500 μM IBMX, then distributed in microplates and incubated in the presence of HBSS (basal control), the test compound or the reference agonist. Incubation time, temperature, cell number, reference agonist and cell line information are included in the Table 1 below. For stimulated control measurement, separate assay wells contain reference compound. Following incubation, the cells are lysed and the fluorescence acceptor (D2-labeled cAMP) and fluorescence donor (anti-cAMP antibody labeled with europium cryptate) were added. After 60 minutes at room temperature, the fluorescence transfer was measured at excitation wavelength 337 nm and emission wavelengths 620 and 665 nm using a microplate reader (Envision, Perkin Elmer). The cAMP concentration was determined by dividing the signal measured at 665 nm by that measured at 620 nm (ratio).
(§3) The results are expressed as a percent of the control response to 1 μM of the reference. The standard reference agonist is tested in each experiment at several concentrations to generate a concentration-response curve from which its EC50 value is calculated.

hMC1r = biological target: T5, hMC1r (Homo sapiens, UniProt Q01726); assay: Alternative assay for agonist activity (intracellular cAMP), HBL cells, native MC1r; details: not CEREP; for EC50: cAMP HTRF; for Emax: reference NDP-α-MSH, read-out: Emax percent hMC1r (percent of the maximal response obtained with the positive control)
T5 construct: B16-F10 (mouse) and HBL (human) cell lines that express native MC1 r; endogenous in cells; host or cells: HBL human melanoma cells
T5 sequence (Q01726 whole entry): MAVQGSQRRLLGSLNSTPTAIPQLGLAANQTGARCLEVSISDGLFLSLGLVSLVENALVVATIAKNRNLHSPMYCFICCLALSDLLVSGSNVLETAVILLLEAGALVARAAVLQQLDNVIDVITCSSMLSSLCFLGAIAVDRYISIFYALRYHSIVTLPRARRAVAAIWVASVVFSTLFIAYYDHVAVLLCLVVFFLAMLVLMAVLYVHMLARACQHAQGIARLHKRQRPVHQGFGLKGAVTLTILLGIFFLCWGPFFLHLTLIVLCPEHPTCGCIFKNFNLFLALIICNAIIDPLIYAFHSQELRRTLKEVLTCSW
Description: as §1

mMC1r [6] = biological target: T3, mMC1r; assay: cAMP agonist activity assay performed at CEREP (HTRF), MC1; details: determined by CEREP, B16-F1 cells; for EC50: cAMP HTRF; for Emax: control NDP-alpha-MSH, read-out: Emax percent mMC1r* (percent of the maximal response obtained with the positive control)
Description: as §2, §3

hMC4r [7] = biological target: T1, hMC4r; assay: cAMP agonist activity assay performed at CEREP (HTRF), MC4; parameters: expressed in transfected cells; details: determined by CEREP, CHO-K1 cells
Description: as §2
(§4) The results are expressed as a percent of the control response to 1 μM of the reference. […]

hMC3r [8] = biological target: T4, hMC3r; assay: cAMP agonist activity assay performed at CEREP (HTRF), MC3; parameters: expressed in transfected cells; details: determined by CEREP, CHO-K1 cells
Description: as §2, §4

Emax (hMC4r [1]) [%]	EC50 (hMC4r [1]) [nM]	EC50 (hMC5r [2]) [nM]	Emax (hMC5r [2]) [%]	EC50 (mMC1r [3]) [nM]	Emax (mMC1r [3]) [%]	Emax (hMC3r [4]) [%]	EC50 (hMC3r [4]) [nM]	EC50 (hMC5r [5]) [nM]	Emax (hMC5r [5]) [%]	EC50 (hMC1r) [nM]	Emax (hMC1r) [%]	EC50 (mMC1r [6]) [nM]	Emax (mMC1r [6]) [%]	EC50 (hMC4r [7]; cAMP HTRF) [nM]	Emax (hMC4r [7]; control NDP-alpha-MSH, read-out: Emax percent hMC4r* (percent of the maximal response obtained with the positive control)) [%]	EC50 (hMC3r [8]; cAMP HTRF) [nM]	Emax (hMC3r [8]; control NDP-alpha-MSH, read-out: Emax percent hMC3r* (percent of the maximal response obtained with the positive control)) [%]	Compound
102	0.9	2	58					0.71	60	0.6	106	0.01	108					CC(=O)N[C@@H](CCCNC(=N)N)C(=O)N[C@H]1CCNC(=O)CCCCNC(=O)[C@H](Cc2c[nH]c3ccccc23)NC(=O)[C@H](CCCNC(=N)N)NC(=O)[C@@H](Cc2ccc(F)cc2)NC(=O)[C@H](Cc2c[nH]cn2)NC1=O [Peptide 16]
70	4300			350	80	0.5	> 10000	> 10000	5	3	92	2600	74					CCCCCC(=O)N[C@H]1CNC(=O)CCCCNC(=O)[C@H](CCCNC(=N)N)NC(=O)[C@@H](Cc2ccccc2)NC(=O)[C@H](Cc2c[nH]cn2)NC1=O [Peptide 19] (Hexanoyl-[Dap]H[dF]R[Ava]; lactam 1-C)

More lines, now with the values behind:

Compound	Emax (hMC4r [1]) [%]	EC50 (hMC4r [1]) [nM]	EC50 (hMC5r [2]) [nM]	Emax (hMC5r [2]) [%]	EC50 (mMC1r [3]) [nM]	Emax (mMC1r [3]) [%]	Emax (hMC3r [4]) [%]	EC50 (hMC3r [4]) [nM]	EC50 (hMC5r [5]) [nM]	Emax (hMC5r [5]) [%]	EC50 (hMC1r) [nM]	Emax (hMC1r) [%]	EC50 (mMC1r [6]) [nM]	Emax (mMC1r [6]) [%]	EC50 (hMC4r [7]; cAMP HTRF) [nM]	Emax (hMC4r [7]; control NDP-alpha-MSH, read-out: Emax percent hMC4r* (percent of the maximal response obtained with the positive control)) [%]	EC50 (hMC3r [8]; cAMP HTRF) [nM]	Emax (hMC3r [8]; control NDP-alpha-MSH, read-out: Emax percent hMC3r* (percent of the maximal response obtained with the positive control)) [%]
CC(=O)N[C@@H](CCCNC(=N)N)C(=O)N[C@H]1CCNC(=O)CCCCNC(=O)[C@H](Cc2c[nH]c3ccccc23)NC(=O)[C@H](CCCNC(=N)N)NC(=O)[C@@H](Cc2ccccc2)NC(=O)[C@H](CC(N)=O)NC1=O [Peptide 10] (Ac-R[Dab]N[dF]RW[Ava]; lactam 2-C)	111	0.9	207	54	113	94	63	6	1600	71								
CCCC[C@H](NC(C)=O)C(=O)N[C@H]1CCCCNC(=O)CNC(=O)[C@H](Cc2c[nH]c3ccccc23)NC(=O)[C@H](CCCNC(=N)N)NC(=O)[C@@H](Cc2cccc3ccccc23)NC(=O)C2CC(OCc3ccccc3)CN2C1=O (some centres unmarked) [Peptide 1] (Ac-[Nle]K[ξHyp](Bn)[d1Nal]RWG; lactam 2-C)	39	0.5			3	58	12	> 10000	0.22	110			260	65	0.82	50	> 10000	9
CCCC[C@H](NC(C)=O)C(=O)N[C@H]1CNC(=O)CCNC(=O)[C@H](Cc2c[nH]c3ccccc23)NC(=O)[C@H](CCCNC(=N)N)NC(=O)[C@@H](Cc2cccc3ccccc23)NC(=O)C2CC(OCc3ccccc3)CN2C1=O (some centres unmarked) [Peptide 7] (Ac-[Nle][Dap][ξHyp](Bn)[d1Nal]RW[βAla]; lactam 2-C)	26	5	1	71	17	74	7	> 10000	2	97								
